Laboratory results: ChEMBL document CHEMBL1140402, “SAR, species specificity, and cellular activity of cyclopentene dicarboxylic acid amides as DHODH inhibitors” (Bioorg Med Chem Lett, 2005)

What was measured:
[1] = biological target: Dihydroorotate dehydrogenase (quinone), mitochondrial (Rattus norvegicus, UniProt Q63707); experiment: Inhibitory activity against rat dihydroorotate dehydrogenase
[2] = Inhibitory activity (proliferation) against human peripheral blood mononuclear cells stimulated with Phytohemagglutininin-L (value range: 0.175-0.327); assay type: functional
[3] = biological target: Dihydroorotate dehydrogenase (quinone), mitochondrial (Mus musculus, UniProt O35435); experiment: Inhibitory activity against mouse dihydroorotate dehydrogenase
[4] = Inhibitory activity (proliferation) against human peripheral blood mononuclear cells stimulated with Phytohemagglutininin-L; assay type: functional
[5] = biological target: Dihydroorotate dehydrogenase (quinone), mitochondrial (Homo sapiens, UniProt Q02127); experiment: Inhibition of N-terminally truncated recombinant human dihydroorotate dehydrogenase using in vitro enzyme assay
Sequence of Dihydroorotate dehydrogenase (quinone), mitochondrial (Homo sapiens, UniProt Q02127) (Q02127 whole entry, the tested form may be a part): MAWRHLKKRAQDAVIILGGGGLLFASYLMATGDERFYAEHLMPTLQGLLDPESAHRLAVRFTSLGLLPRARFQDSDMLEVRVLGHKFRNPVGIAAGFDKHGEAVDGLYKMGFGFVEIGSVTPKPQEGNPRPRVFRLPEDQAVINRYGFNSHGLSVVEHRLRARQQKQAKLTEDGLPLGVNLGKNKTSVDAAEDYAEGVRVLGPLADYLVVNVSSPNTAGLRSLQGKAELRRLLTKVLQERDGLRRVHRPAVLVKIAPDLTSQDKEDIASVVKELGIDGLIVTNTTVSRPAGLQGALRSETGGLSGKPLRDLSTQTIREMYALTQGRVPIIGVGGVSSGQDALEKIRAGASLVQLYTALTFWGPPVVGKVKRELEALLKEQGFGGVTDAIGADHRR

Sequence of Dihydroorotate dehydrogenase (quinone), mitochondrial (Rattus norvegicus, UniProt Q63707) (Q63707 whole entry): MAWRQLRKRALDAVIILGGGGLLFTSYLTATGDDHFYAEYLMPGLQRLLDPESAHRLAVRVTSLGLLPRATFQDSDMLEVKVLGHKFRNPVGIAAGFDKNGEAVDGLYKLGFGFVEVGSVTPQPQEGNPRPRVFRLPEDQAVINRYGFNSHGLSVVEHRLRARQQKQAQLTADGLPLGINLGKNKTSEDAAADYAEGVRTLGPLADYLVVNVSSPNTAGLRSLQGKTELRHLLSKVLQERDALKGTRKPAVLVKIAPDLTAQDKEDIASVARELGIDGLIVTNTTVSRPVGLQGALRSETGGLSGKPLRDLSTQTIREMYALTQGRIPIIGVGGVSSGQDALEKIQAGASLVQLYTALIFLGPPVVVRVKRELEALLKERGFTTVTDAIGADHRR
Sequence of Dihydroorotate dehydrogenase (quinone), mitochondrial (Mus musculus, UniProt O35435) (O35435 whole entry): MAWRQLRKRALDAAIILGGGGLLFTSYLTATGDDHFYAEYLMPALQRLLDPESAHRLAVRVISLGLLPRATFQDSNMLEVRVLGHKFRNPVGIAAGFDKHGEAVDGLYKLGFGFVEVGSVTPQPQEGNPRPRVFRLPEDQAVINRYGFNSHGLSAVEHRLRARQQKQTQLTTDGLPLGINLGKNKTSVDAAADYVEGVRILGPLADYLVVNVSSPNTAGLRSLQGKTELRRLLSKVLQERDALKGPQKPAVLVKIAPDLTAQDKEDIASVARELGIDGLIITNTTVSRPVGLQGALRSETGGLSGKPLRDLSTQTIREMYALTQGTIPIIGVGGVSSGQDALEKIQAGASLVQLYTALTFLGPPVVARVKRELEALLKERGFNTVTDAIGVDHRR

Compound | IC50 [5] [µM] | also measured
O=C(O)C1=C(C(=O)Nc2c(F)c(F)c(-c3cccc(OC(F)(F)F)c3)c(F)c2F)CCC1 | – | IC50 [1]: 0.078 µM; IC50 [2]: 0.327 µM; IC50 [3]: 0.422 µM
O=C(O)C1=C(C(=O)Nc2c(F)cc(-c3cccc(OC(F)(F)F)c3)cc2F)CCC1 | – | IC50 [1]: 0.504 µM; IC50 [4]: 15 µM; IC50 [3]: 2 µM
O=C(O)C1=C(C(=O)Nc2ccc(OCc3c(F)cccc3Cl)c(Cl)c2)CCC1 | 0.011 | –
O=C(O)C1=C(C(=O)Nc2ccc(OCc3c(F)cccc3Cl)c(Cl)c2)COC1 | 0.041 | IC50 [1]: 1.2 µM; IC50 [4]: 1 µM; IC50 [3]: 1.8 µM
COc1cccc(-c2ccc(NC(=O)C3=C(C(=O)O)CSC3)c(F)c2)c1 | 0.131 | –
O=C(O)C1=C(C(=O)Nc2c(F)cc(-c3cccc(OC(F)(F)F)c3)cc2F)CSC1 | 0.015 | –
COc1cccc(-c2ccc(NC(=O)C3=C(C(=O)O)C(O)CC3)c(F)c2)c1 (configuration not stated) | 0.68 | –
O=C(O)C1=C(C(=O)Nc2c(F)c(F)c(-c3cccc(OC(F)(F)F)c3)c(F)c2F)COC1 | 0.058 | –
O=C(O)C1=C(C(=O)Nc2c(F)c(F)c(-c3cccc(OC(F)(F)F)c3)c(F)c2F)CSC1 | 0.004 | –
O=C(O)C1=C(C(=O)Nc2c(F)cc(-c3cccc(OC(F)(F)F)c3)cc2F)COC1 | 0.205 | –
O=C(O)C1=C(C(=O)Nc2cc(Br)c(OCc3ccccc3)c(Br)c2)CSC1 | 0.173 | –
O=C(O)C1=C(C(=O)Nc2ccc(-c3ccccc3)cc2)CS(=O)(=O)C1 | 3.8 | –
COc1cccc(-c2ccc(NC(=O)C3=C(C(=O)O)CCC3O)c(F)c2)c1 (configuration not stated) | 1.46 | –
COc1cccc(-c2ccc(NC(=O)C3=C(C(=O)O)COC3)c(F)c2)c1 | 0.36 | –
O=C(O)C1=C(C(=O)Nc2cc(Br)c(OCc3ccccc3)c(Br)c2)CCC1 | 0.127 | –
O=C(O)C1=C(C(=O)Nc2ccc(-c3ccccc3)cc2)CCC1 | – | IC50 [1]: 1.5 µM
O=C(O)C1=C(C(=O)Nc2ccc(OCc3ccccc3)cc2)CCC1 | 2 | –
O=C(O)C1=C(C(=O)Nc2ccc(-c3ccccc3)cc2)CSC1 | 0.667 | –
C/C(O)=C(\C#N)C(=O)Nc1ccc(C(F)(F)F)cc1 [TERIFLUNOMIDE] | – | IC50 [4]: 108 µM
COc1cccc(-c2ccc(NC(=O)C3=C(C(=O)O)CCC3)c(F)c2)c1 [VIDOFLUDIMUS] | – | IC50 [4]: 13 µM
